In brackets after ≈: the same amount, converted by molar mass.
Columns and labels:
[1] = tested on: Fluoroquinolone Sensitive Strains; assay: In-vitro antimicrobial test (MIC, two-fold serial agar dilution, NCCLS), Table 17; type: cell-based; conditions: for MICs: hydrochloride
Experimental: (§1) The test method was in accordance with the standard NCCLS protocol (Methods for Dilution Antimicrobial Susceptibility Tests for Bacteria that grow Aerobicially, Approved Standards, M7-A5, Fifth Edition, January 2000).
(§2) The antibacterial activities (minimum inhibitory concentration: MIC, […]) were determined by using the two-fold serial agar dilution method recommended by NCCLS. The media used for preculture and main culture were Tryptic Soya broth (Difco) and Mueller Hinton medium (Difco), respectively. The Mueller Hinton agar was supplemented with 5% sheep blood for streptococci. Overnight cultures were diluted with buffered saline (pH 7.2) to the final cell density of 5×10^6-10^7 CFU/ml, and each bacterial suspension was applied with a replicator (Denley's multipoint inoculator, UK) onto a series of Mueller-Hinton agar plates containing antibacterial agents at various concentrations. Final inoculum was approximately 10^4 CFU/spot. The plates were incubated for 18 hrs at 37° C. The MIC was defined as the lowest concentration of an antibacterial agent that inhibits the development of visible microbial growth on agar.

[2] = tested on: Fluoroquinolone-Resistant Strains; assay: In-vitro antimicrobial test (MIC, two-fold serial agar dilution, NCCLS), Table 18; type: cell-based
Experimental: as §1, §2

J 744 (mouse macrophage) = assay: Cytotoxicity test (Alamar blue), J 744 cells, Table 23; type: cell-based; conditions: 3 hrs drug exposure, further 96 hrs incubation
Experimental: Compounds were evaluated for their cytotoxic potential against two celllines viz. […] Cytotoxic drugs inhibit this reaction resulting into blue coloured well. Minimum drug concentration inhibiting Alamar blue color change i.e. resulting into blue coloured wells for a given drug is considered cytotoxic concentration.

[3] = tested on: V79 (Chinese Hamster Lung); assay: Cytotoxicity test (Alamar blue), V79 cells, Table 23; type: cell-based; conditions: 3 hrs drug exposure, further 96 hrs incubation
Experimental: Compounds were evaluated for their cytotoxic potential against two […] viz. […] Cells were grown for 3-4days in a culture flask using D-MEM (Dulbecco's Modified Eagle. […] Freshly grown cells were distributed in microtiter plates at a cell density of 10^5-10^6 cells/well and allowed to […] form monolayer by incubating the microtiter plate at […] for 24 hrs. […] Following 3 hrs. of drug exposure, cell were washed with D-MEM and incubated further for 96 hrs. Cytotoxic effects of drugs were monitored through daily microscopic observation and by ascertaining the metabolic status through redox indicator Alamar blue. Healthy actively metabolising cells bring about colour change of Alamar blue from blue to pink within an overnight incubation. Cytotoxic drugs inhibit this reaction resulting into blue coloured well. Minimum drug concentration inhibiting Alamar blue color change i.e. resulting into blue coloured wells for a given drug is considered cytotoxic concentration.

[4] = tested on: Multidrug-Resistant (MDR) Pneumococcal Infections; assay: In-vivo antimicrobial test, systemic infection model (mouse septicemia), Table 22; set-up: species or system Swiss male and female mice; conditions: oral dosing 1 hour and 5 hours post-infection, survival on day 7, strain resistant to β-lactams, macrolides and fluoroquinolones; for ED50: Streptococcus pneumoniae, po, read-out: ED50 p.o., MDR S. pneumoniae 718; for ED50 p.o., MDR S. pneumoniae 718: hydrochloride
Experimental: The in vivo efficacy was studied through mouse septicemia model of infection in Swiss male and female mice (4 weeks old, 20+2 g weight) using 6 animals in each group. Infective organisms were inoculated intraperitonially. Compound were administered by oral route 1 hour and 5 hours post-infection. […] Appropriate comparators were included in the study.

[5] = Enterococcus faecalis, ATCC29212, E. faecalis ATCC 29212
[6] = Escherichia coli, ATCC25922, E. coli ATCC 25922
[7] = Pseudomonas aeruginosa, P. aeruginosa 27853
[8] = S. sanguis ATCC 10556 (Viridans Streptococci group)
[9] = Staphylococcus aureus, ATCC 25923 / MSSA, MSSA ATCC 25923
[10] = Streptococcus pneumoniae, ATCC49619, S. pneumoniae ATCC 49619
[11] = Staphylococcus aureus, MRSA, MRSA 032
[12] = Streptococcus mitis, Cipro^R S. mitis 938
[13] = Streptococcus pneumoniae, FQ^R S. pneumoniae 718
[14] = Cipro^R S. sanguis 941, hydrochloride

Row | SMILES | MIC [1, 5] | MIC [1, 6] | MIC [1, 7] | MIC [1, 9] | MIC [1, 10] | MIC ([2]; Cipro^R S. sanguis 941) | melting point | MIC [1, 8] | MIC [2, 11] | MIC [2, 12] | MIC [2, 13] | Cytotoxic concentration, J 744 Macrophage (J 744 (mouse macrophage)) | Cytotoxic concentration, V 79 CHL [3] | ED50 [4] | further results
1 | Cc1c(N2CCC(N)C(C)(C)C2)c(F)cc2c(=O)c(C(=O)O)cn(C3CC3)c12.Cl (racemic) [Compound 102, (±)-1-Cyclopropyl-6-fluoro-1,4-dihydro-8-methyl-7-(4-amino-3,3-dimethyl-1-piperidinyl)-4-oxo-quinoline-3-carboxylic acid hydrochloride] | 0.05 µg/mL | 0.025 µg/mL | 3.12 µg/mL | 0.025 µg/mL | 0.025 µg/mL | 1.56 µg/mL |  | 0.025 µg/mL | 0.8 µg/mL | 1.56 µg/mL | 0.8 µg/mL | 1000 µg/mL | 750 µg/mL | 30 mg/kg | 
2 | Cc1c(N2CC[C@H](N)[C@H](C)C2)c(F)cc2c(=O)c(C(=O)O)cn(C3CC3)c12.Cl (relative stereo) [Compound 100, cis-1-Cyclopropyl-6-fluoro-1,4-dihydro-8-methyl-7-(4-amino-3-methyl-1-piperidinyl)-4-oxo-quinoline-3-carboxylic acid hydrochloride] | 0.1 µg/mL | 0.0012 µg/mL | 3.12 µg/mL | 0.025 µg/mL | 0.05 µg/mL | 3.12 µg/mL | 255 to 260 °C | 0.025 µg/mL | 1.56 µg/mL | 1.56 µg/mL | 1.56 µg/mL | 1000 µg/mL | 125 µg/mL | 30 mg/kg | 
3 | COc1c(N2CCC(N)C(C)(C)C2)c(F)cc2c(=O)c(C(=O)O)cn(C3CC3)c12.Cl (single isomer, unassigned; (+)) [Compound 22, (+)-1-Cyclopropyl-6-fluoro-1,4-dihydro-8-methoxy-7-(4-amino-3,3-dimethyl-1-piperidinyl)-4-oxo-quinoline-3-carboxylic acid hydrochloride] |  |  |  |  |  |  |  |  |  | 0.8 µg/mL |  | >1000 µg/mL |  |  | MICs [2, 14]: 0.2 µg/mL; MICs ([2]; MRSA 032): 0.8 µg/mL; Cytotoxic concentration, V 79 CHL ([3]; hydrochloride): 1000 µg/mL; ED50 p.o., MDR S. pneumoniae 718 [4]: 20 mg/kg
4 | Cc1c(N2CCC(N)C(C)(C)C2)c(F)cc2c(=O)c(C(=O)O)cn(C3CC3)c12.Cl (single isomer, unassigned; (+)) [Compound 106, (+)-1-Cyclopropyl-6-fluoro-1,4-dihydro-8-methyl-7-(4-amino-3,3-dimethyl-1-piperidinyl)-4-oxo-quinoline-3-carboxylic acid hydrochloride] |  | 0.05 µg/mL |  | 0.025 µg/mL |  |  |  | 0.1 µg/mL |  |  |  |  |  |  | MICs ([1]; E. faecalis ATCC 29212): 0.2 µg/mL; MICs ([1]; P. aeruginosa 27853): 6.25 µg/mL; MICs ([1]; S. pneumoniae ATCC 49619): 0.1 µg/mL; MICs ([2]; Cipro^R S. mitis 938, hydrochloride): 6.25 µg/mL; MICs [2, 14]: 6.25 µg/mL; MICs ([2]; FQ^R S. pneumoniae 718, hydrochloride): 1.56 µg/mL; MICs ([2]; MRSA 032, hydrochloride): 1.56 µg/mL; Cytotoxic concentration, J 744 Macrophage (J 744 (mouse macrophage); hydrochloride): >1000 µg/mL; Cytotoxic concentration, V 79 CHL ([3]; hydrochloride): >1000 µg/mL
5 | COc1c(N2CCC(N)C(C)(C)C2)c(F)cc2c(=O)c(C(=O)O)cn(C3CC3)c12.Cl (single isomer, unassigned; (-)) [Compound 26, (−)-1-Cyclopropyl-6-fluoro-1,4-dihydro-8-methoxy-7-(4-amino-3,3-dimethyl-1-piperidinyl)-4-oxo-quinoline-3-carboxylic acid hydrochloride] |  |  |  |  |  |  |  |  | 0.8 µg/mL |  | 0.8 µg/mL | >1000 µg/mL |  |  | Cytotoxic concentration, V 79 CHL ([3]; hydrochloride): >1000 µg/mL; ED50 p.o., MDR S. pneumoniae 718 [4]: 50 mg/kg
6 | CCOC(=O)NC1CCN(c2c(F)cc3c(=O)c(C(=O)O)cn(C4CC4)c3c2OC)CC1(C)C (stereo not shown) [Compound 30, 1-Cyclopropyl-6-fluoro-1,4-dihydro-8-methoxy-7-(4-carbethoxyamino-3,3-dimethyl-1-piperidinyl)-4-oxo-quinoline-3-carboxylic acid] |  | 0.05 µg/mL (≈ 0.105 µM) |  | 0.05 µg/mL (≈ 0.105 µM) | 0.1 µg/mL (≈ 0.21 µM) |  | 222 °C |  |  |  |  |  |  |  | 
7 | COc1c(N2CCNC(C)C2)c(F)cc2c(=O)c(C(=O)O)cn(C3CC3)c12 (stereo not shown) [Gatifloxacin] |  |  |  |  |  |  |  |  |  |  |  |  |  | > 100 mg/kg | 
8 | C[C@H]1COc2c(N3CCN(C)CC3)c(F)cc3c(=O)c(C(=O)O)cn1c23 [S-(−)-levofloxacin, reference compound] | 0.8 µg/mL (≈ 2.21 µM) | 0.025 µg/mL (≈ 0.0692 µM) | 3.12 µg/mL (≈ 8.63 µM) | 0.2 µg/mL (≈ 0.553 µM) | 0.8 µg/mL (≈ 2.21 µM) | 12.5 µg/mL (≈ 34.6 µM) |  | 1.56 µg/mL (≈ 4.32 µM) | 6.25 µg/mL (≈ 17.3 µM) | 25 µg/mL (≈ 69.2 µM) | 12.5 µg/mL (≈ 34.6 µM) |  |  | > 100 mg/kg | 

The next lines start with results.

Row | MIC [1, 5] | MIC [1, 6] | MIC [1, 7] | MIC [1, 9] | MIC [1, 10] | MIC ([2]; Cipro^R S. sanguis 941) | melting point | SMILES | MIC [1, 8] | MIC [2, 11] | MIC [2, 12] | MIC [2, 13] | Cytotoxic concentration, J 744 Macrophage (J 744 (mouse macrophage)) | Cytotoxic concentration, V 79 CHL [3] | ED50 [4] | further results
9 | 0.2 µg/mL (≈ 0.536 µM) | 0.4 µg/mL (≈ 1.07 µM) | 12.5 µg/mL (≈ 33.5 µM) | 0.012 µg/mL (≈ 0.0321 µM) | 0.1 µg/mL (≈ 0.268 µM) | 3.12 µg/mL (≈ 8.36 µM) | 223 to 225 °C | Cc1c(N2CC[C@@H](N)[C@H](C)C2)c(F)cc2c(=O)c(C(=O)O)cn(C3CC3)c12 (single isomer, unassigned) [Compound 97, trans-1-Cyclopropyl-6-fluoro-1,4-dihydro-8-methyl-7-(4-amino-3-methyl-1-piperidinyl)-4-oxo-quinoline-3-carboxylic acid] | 0.2 µg/mL (≈ 0.536 µM) | 0.8 µg/mL (≈ 2.14 µM) | 3.12 µg/mL (≈ 8.36 µM) | 3.12 µg/mL (≈ 8.36 µM) | >1000 µg/mL | >1000 µg/mL |  | 
10 | 0.1 µg/mL | 0.006 µg/mL | 1.56 µg/mL | 0.025 µg/mL | 0.05 µg/mL | 3.12 µg/mL | 262 to 265 °C | Cc1c(N2CC[C@@H](N)[C@H](C)C2)c(F)cc2c(=O)c(C(=O)O)cn(C3CC3)c12.Cl (single isomer, unassigned) [Compound 98, trans-1-Cyclopropyl-6-fluoro-1,4-dihydro-8-methyl-7-(4-amino-3-methyl-1-piperidinyl)-4-oxo-quinoline-3-carboxylic acid hydrochloride] | 0.025 µg/mL | 1.56 µg/mL | 1.56 µg/mL | 1.56 µg/mL | 1000 µg/mL | 250 µg/mL |  | 
11 |  | 0.05 µg/mL (≈ 0.128 µM) |  | 0.05 µg/mL (≈ 0.128 µM) | 0.2 µg/mL (≈ 0.514 µM) |  | 238 to 240 °C | COc1c(N2CCC(N)C(C)C2)c(F)cc2c(=O)c(C(=O)O)cn(C3CC3)c12 (stereo not shown) [Compound 1, 1-Cyclopropyl-6-fluoro-1,4-dihydro-8-methoxy-7-(4-amino-3-methyl-1-piperidinyl)-4-oxo-quinoline-3-carboxylic acid] |  |  |  |  |  |  |  | 
12 |  | 0.05 µg/mL (≈ 0.125 µM) |  | 0.05 µg/mL (≈ 0.125 µM) | 0.05 µg/mL (≈ 0.125 µM) |  | 221 °C | Cc1c(N2CCC(N(C)C)C(C)C2)c(F)cc2c(=O)c(C(=O)O)cn(C3CC3)c12 (stereo not shown) [Compound 114, 1-Cyclopropyl-6-fluoro-1,4-dihydro-8-methyl-7-(4-dimethylamino-3-methyl-1-piperidinyl)-4-oxo-quinoline-3-carboxylic acid] |  |  |  |  |  |  |  | 
